According to patent publication US7138361B2, “Herbicidal heterocycles” (E. I. du Pont de Nemours and Company, priority 2000, dated 2006):

Key:
Type in all cases: in vivo
[1] = system: smallflower flatsedge (Cyperus difformis); assay: Test C flooded paddy test; settings: for Flatsedge plant response rating: Flooded Paddy, scale 0 to 100, 0 no effect, 100 complete control; for Plant response rating, Flatsedge: flooded paddy test, scale 0 to 100 (0 no effect, 100 complete control)
In short: (§1)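 Response on a 0-to-100 scale (no effect to complete control) was assessed by eye versus controls. Plants had reached 2 leaves when treated in flooded paddy conditions. The assessment took place after 12–14 days of greenhouse growth.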

[2] = system: barnyardgrass (Echinochloa crus-galli); assay: Test C flooded paddy test; settings: for Barnyardgrass plant response rating: Flooded Paddy, scale 0 to 100, 0 no effect, 100 complete control; for Plant response rating, Barnyardgrass: flooded paddy test, scale 0 to 100 (0 no effect, 100 complete control)
In short: as §1

[3] = system: duck salad (Heteranthera limosa); assay: Test C flooded paddy test; settings: for Ducksalad plant response rating: Flooded Paddy, scale 0 to 100, 0 no effect, 100 complete control; for Plant response rating, Ducksalad: flooded paddy test, scale 0 to 100 (0 no effect, 100 complete control)
In short: as §1

[4] = system: rice (Oryza saliva); assay: Test C flooded paddy test; settings: for Rice plant response rating: Flooded Paddy, scale 0 to 100, 0 no effect, 100 complete control; for Plant response rating, Rice: flooded paddy test, scale 0 to 100 (0 no effect, 100 complete control)
In short: as §1

[5] = system: blackgrass (Alopecurus myosuroides); assay: Test B postemergence; settings: 13 to 15 days
In short: (§2)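 Visual injury scores, 0 = no effect to 100 = complete control, assigned against controls after 13 to 15 days in the greenhouse. Compounds formulated in non-phytotoxic solvent plus surfactant and applied to soil after planting (pre) or onto foliage of 1- to 4-leaf plants (post).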

[6] = system: lambsquarters (Chenopodium album); assay: Test B postemergence; settings: 13 to 15 days
In short: as §2

[7] = system: Sunflower; assay: Test C preemergence; settings: Rate 31 g/ha, scale 0 to 100
[8] = system: smallflower flatsedge (Cyperus difformis); assay: Test B flooded paddy test; settings: Rate 1000 g/ha, scale of 0 to 100 where 0 is no effect and 100 is complete control, visually evaluated after 13 to 15 days
In short: (§3)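 Plants were grown to the 2-leaf stage in flooded paddy conditions before treatment with the formulated test chemicals. After 13 to 15 days in a greenhouse, each species was visually compared with untreated controls and rated from 0 (no effect) to 100 (complete control).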

[9] = system: barnyardgrass (Echinochloa crus-galli); assay: Test B flooded paddy test; settings: Rate 1000 g/ha, scale of 0 to 100 where 0 is no effect and 100 is complete control, visually evaluated after 13 to 15 days
In short: as §3

[10] = system: duck salad (Heteranthera limosa); assay: Test B flooded paddy test; settings: Rate 1000 g/ha, scale of 0 to 100 where 0 is no effect and 100 is complete control, visually evaluated after 13 to 15 days
In short: as §3

[11] = system: rice (Oryza saliva); assay: Test B flooded paddy test; settings: Rate 1000 g/ha, scale of 0 to 100 where 0 is no effect and 100 is complete control, visually evaluated after 13 to 15 days
In short: as §3

[12] = system: morningglory (Ipomoea hederacea); assay: Test C postemergence; settings: scale 0 to 100 (0 no effect, 100 complete control)
In short: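 Pre- and postemergence treatments used a non-phytotoxic solvent/surfactant formulation; post-treated plants measured 2 to 18 cm. Greenhouse hold 12–14 d; % control estimated visually relative to controls.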

[13] = Rate 125 g/ha, scale 0 (no effect) to 100 (complete control)
[14] = Rate 500 g/ha, scale 0 to 100, 0 is no effect, 100 is complete control

CCC(CC)c1ccn(C2SCN(c3cccc(C(F)(F)F)c3)C2=O)n1 (stereo not drawn) [Compound 25]
Flatsedge plant response rating ([1]; Rate 250 g/ha): 100 | Flatsedge plant response rating ([1]; Rate 500 g/ha): 100 | Plant response rating, Flatsedge ([1]; Rate 62 g/ha): 100 | Plant response rating, Flatsedge ([1]; Rate 125 g/ha): 100 | Barnyardgrass plant response rating ([2]; Rate 250 g/ha): 100 | Barnyardgrass plant response rating ([2]; Rate 500 g/ha): 100 | Plant response rating, Barnyardgrass ([2]; Rate 62 g/ha): 100 | Plant response rating, Barnyardgrass ([2]; Rate 125 g/ha): 100 | Ducksalad plant response rating ([3]; Rate 250 g/ha): 100 | Ducksalad plant response rating ([3]; Rate 500 g/ha): 100 | Plant response rating, Ducksalad ([3]; Rate 62 g/ha): 100 | Plant response rating, Ducksalad ([3]; Rate 125 g/ha): 100 | Rice plant response rating ([4]; Rate 250 g/ha): 60 | Rice plant response rating ([4]; Rate 500 g/ha): 80 | Plant response rating, Rice ([4]; Rate 62 g/ha): 30 | Plant response rating, Rice ([4]; Rate 125 g/ha): 20 | Plant response rating, Blackgrass [5, 13]: 0 | Plant response rating, Blackgrass [5, 14]: 0 | Plant response rating, Lambsquarters [6, 13]: 100 | Plant response rating, Lambsquarters [6, 14]: 100 | Plant response rating, Sunflower [7]: 0 | Plant response rating, Flatsedge [8]: 100 | Plant response rating, Barnyardgrass [9]: 100 | Plant response rating, Ducksalad [10]: 100 | Plant response rating, Rice [11]: 90 | Plant response rating, Morningglory ([12]; Rate 250 g/ha): 80 | Plant response rating, Morningglory ([12]; Rate 500 g/ha): 100
